Results taken from US8952048B2, “Treatment of immune disorders using kainate receptor antagonists” (Virginia Commonwealth University, priority 2010, dated 2015).
Entries after “also recorded” stand apart in the source; their conditions may differ.

Experiments:
primary B cells = assay: ADAM10 mRNA by qPCR in primary B cells; assay type: cell-based, human; conditions: 5 mM KA or glutamate, 30 minutes; normalized to beta-actin
Description: Alternatively when whole PBMC was used, buffy coats were obtained from the Virginia Blood Service Center (Richmond, Va.). PBMC were isolated by Ficoll gradient density centrifugation. All human studies research was performed in accordance to the Virginia Commonwealth University Institution Review Board per approved protocols. RT-PCR and qPCR. RNA was isolated via standard Trizol (Invitrogen) purification protocol and the Access Quick RT-PCR kit (Promega, Madison Wis.) was used with gene specific primers to examine for the presence of kainate receptor subunits and their transcript variants. Primers were designed using VectorNTI software (Invitrogen). Ready-made Primers® for G3PDH and all custom made primers for all sequences were synthesized by Integrated DNA Technologies (Coralville, Iowa). qPCR experiments were performed by the nucleic acid core in the ABI Prism® 7900 Sequence Detection System (Applied Biosystems, Foster City, Calif.) using the TaqMan® One Step PCR Master Mix Reagents Kit. All the samples were tested in triplicate using the following conditions: 48° C./30 min; 95° C./10 min; and 40 cycles of 95° C./15 sec and 60° C./1 min. The cycle threshold was determined to provide the optimal standard curve values (0.98 to 1.0). The probes and primers for ADAM10 (#Hs00153853_ml) were purchased from ABI. […] Relative ADAM10 mRNA is determined as a relative ratio based upon beta-actin.

primary human B cells [1] = assay: Immunoglobulin production by primary human B cells (ELISA, 14 days); assay type: cell-based; conditions: for amount of IgE produced / effect on glutamate enhancement of IgG production: 14 days; for effect on glutamate enhancement of IgG production / effect on glutamate mediated increase in IgE production: 10 μM antagonist before culture; for effect on glutamate enhancement of IgG production: 5 mM glutamate
Description: (§1) Primary B cells or PBMC were cultured in the presence of 10 ng/mL IL-4 and 1 μg/mL anti-CD40 in complete culture media in the presence or absence of 5 mM KA or 5 mM Glu. When indicated, 200 ng/mL IL-21 was also added. For antagonism studies, prior to culture primary cells were treated with 10 μM vehicle (DMSO), NBQX, NS102, or TPM. After 14 days of culture, cell free supernatants were analyzed via ELISA for Ig levels. As cells are grown at various densities, line graphs represent Ig production as compared to cell density.
(§2) To determine the effect of ADAM10 inhibition on Ig production, purified human B cells were cultured with 10 ng/mL IL-4, 1 μg/mL anti-CD40, and 200 ng/mL IL-21 in complete culture media in the presence of DMSO as vehicle control or 10 μM ADAM10 specific inhibitor. Five days later, cell free supernatants were harvested for soluble CD23 release and fourteen days later, cell free supernatants were analyzed for Ig production. ELISAs. Human sCD23 ELISA was measured using a standard sandwich ELISA approach, using a mouse anti-CD23 (Clone BU38) coating antibody and sheep anti-CD23 (both from The Binding Site Birmingham, UK). Detection is performed with a goat anti-sheep IgG tagged with HRP (Southern Biotech Birmingham, Ala.). Determination of human IgE levels utilized a monoclonal mouse anti-human IgE antibody (clone 4.15) as a capture. Samples and standards were detected using a rabbit anti-human IgE-HRP (Southern Biotech) diluted in PBS/10% FBS. Human IgG or IgM were detected using a goat anti-human IgG or IgM followed by detection with a goat anti-human IgG or IgM tagged with HRP (All from Southern Biotech). Standards for the IgG and IgM ELISAs were purchased from Sigma. IgE standards were purified from JW8 hybridoma cells as previously described (Caven et al., 2005a). All assays utilized TMB substrate (BD Pharmingen San Diego, Calif.) and the reactions were stopped with 0.18M H2SO4. Plates are read at a wavelength of 450 nm on a SpectraMax 250 and data analyzed using SOFTmax PRO 3.1.2 software (Molecular Devices, Los Angeles, Calif.).

RPMI8866 cells = assay: Soluble CD23 release assay in RPMI8866 cells; assay type: cell-based, human; conditions: for effect on increase in sCD23 release caused by KAR stimulation: 50 μM antagonist 1 hr prior to 5 mM KA or Glu; for effect on baseline sCD23 release: 50 μM antagonist, no KA or Glu
Description: For these studies, the CD23+ human B cell line RPMI8866 was grown in the presence or absence of 5 mM KA or Glu for 24 hours in CDMEM10 at a concentration of 1×10^6 cells/mL. For antagonist studies, prior to the addition of KA or Glu cells were pre-treated with 50 μM vehicle (DMSO), NBQX, NS 102, or TPM for one hour. After incubation, cell free supernatants were harvested and sCD23 levels determined by ELISA. […] Forty-eight hours later cell free supernatants were harvested for ELISA.
as §2

B cells from KAR KO mice = assay: In vitro culture of B cells from KAR KO mice with glutamate; assay type: cell-based, mouse; conditions: in the presence of glutamate; data not shown
primary human B cells [2] = assay: [3H]-thymidine proliferation assay, primary B cells; assay type: cell-based
Description: (§3) When PBMC is used the cell concentration is 100,000 cells/well. […] After 96 hours of growth, a 24 hr pulse [H^3]-thymidine (Perkin Elmer) was used. Plates were then harvested using a Filtermate cell harvester onto GFC plates. Assays were read using a Topcount Plate Counter (Perkin Elmer, Waltham, Mass.).

Human PBMC [3] = assay: Proliferation assay, PBMC; assay type: cell-based; conditions: addition of glutamate
Description: as §3

Human PBMC [4] = assay: Immunoglobulin production in PBMC cultures (ELISA, 14 days); assay type: cell-based
Description: as §1, §2

[5] = test system: B cells from SLE patients; assay: SLE vs. normal donor B cell activity in the presence of antagonist; assay type: cell-based, human; conditions: Example 3, written in present tense
Excerpt: Peripheral blood from both SLE patients and normal donors is obtained. Presence of KARS: Specific KAR primers and Western protocols are used to analyze mRNA and protein expression, respectively, in cultured B cells from SLE patients. Flow cytometry is used to confirm cell surface expression. Comparison of the expression of KARs on B cells from normal vs. SLE patients, the presence of KARs on SLE patient B cells is confirmed.
B cells isolated from both donor populations are stimulated with anti-CD40 in the presence or absence of KAR activation to induce cellular proliferation. Differences among both groups both with and without KAR stimulation are determined. Proliferation is measured via H^3 thymidine incorporation as well as cell cycle divisions via CFSE dilution analysis.
B cells isolated from both populations are put in culture in the presence of IL-4 and anti-CD40, the two signals required for Ig production, in the presence or absence of KAR activation. After 14 days of culture, cell free supernatants are analyzed for total IgM, IgG, and IgE via ELISA. Furthermore, specificity of human antibodies is determined by employing commercially available human anti-nuclear antibody (ANA), anti-snRNP/Smith, and anti-dsDNA ELISA kits.
SLE vs. normal donor B cell activity is compared in the presence of at least one antagonist such as NS 102.

GluK2 containing KARs = conditions: Verdoorn et al., 1994; cited from earlier work
[6] = IL-4, anti-CD40, IL-21, 5 mM glutamate, CDMEM-10, 14 days
[7] = anti-CD40, IL-4, IL-21, glutamate
[8] = 10 μM pretreatment 1 hour before glutamate

C=C(C)[C@H]1CN[C@H](C(=O)O)[C@H]1CC(=O)O [KA, kainic acid]
ADAM10 mRNA levels (primary B cells): significant increase | amount of IgE produced (primary human B cells [1]; IL-4 and anti-CD40, CRPMI-10, 5 mM KA or Glu): strong and statistically significant increase | amount of sCD23 released following KAR activation (RPMI8866 cells; 5 mM KA or Glu, 24 hours, CDMEM10): significant elevation

NS(=O)(=O)c1cccc2c1c([N+](=O)[O-])cc1nc(O)c(O)nc12 [NBQX]
effect on glutamate enhancement of IgG production (primary human B cells [1]): unaffected | effect on glutamate mediated increase in IgE production (primary human B cells [1]; [6]): no effect | effect on increase in sCD23 release caused by KAR stimulation (RPMI8866 cells; 24 hours): no change is observed | effect on baseline sCD23 release (RPMI8866 cells): none of the antagonists have any effect

N[C@@H](CCC(=O)O)C(=O)O [glutamate, L-glutamic acid]
ADAM10 mRNA levels (primary B cells): significant increase | total IgG production (primary human B cells [1]; [6]): Enhancement in IgG production was seen in all but the highest density cultures | total IgM levels (primary human B cells [1]; [6]): not influenced | amount of IgE produced (primary human B cells [1]; IL-4, anti-CD40 plus IL-21, 5 mM glutamate): much more IgE; also recorded: pronounced increase | Ig synthesis (B cells from KAR KO mice): did not show any enhanced | proliferation (B cells from KAR KO mice): did not show any enhanced | sCD23 release (B cells from KAR KO mice): did not show any enhanced | cell proliferation (primary human B cells [2]; 5 mM glutamate, IL-4, anti-CD40, IL-21, 96 hours plus 24 hr pulse): significant increase in proliferation | proliferation (Human PBMC [3]): also affected | IgE synthesis (Human PBMC [4]; [7]): very strong enhancement | IgM production (Human PBMC [4]; [7]): not significantly influenced | total IgG production (Human PBMC [4]; [7]): IgG enhancement was seen

O=C1Nc2c(cc([N+](=O)[O-])c3c2CCCC3)C1=NO [NS102, 5-Nitro-6,7,8,9-tetrahydro-1H-benzo[g]indole-2,3-dione 3-oxime]
effect on glutamate enhancement of IgG production (primary human B cells [1]): blocked | effect on glutamate mediated increase in IgE production (primary human B cells [1]; [6]): almost completely blocks | effect on glutamate mediated increase in IgE production (primary human B cells [1]; IL-4, anti-CD40, IL-21, 5 mM glutamate, CDMEM-10, 14 days, listed as NS-102): dramatically reduced | B cell hyperactivity in SLE patients [5]: overcomes the B cell hyperactivity | effect on increase in sCD23 release caused by KAR stimulation (RPMI8866 cells; 24 hours): could prevent the significant increase | effect on baseline sCD23 release (RPMI8866 cells): none of the antagonists have any effect | effect on glutamate-induced increase in proliferation (primary human B cells [2]; 10 μM pretreatment 1 hour before 5 mM glutamate): prevented | selectivity of KAR antagonism (GluK2 containing KARs): selectively antagonizes | effect on glutamate increase in IgE production (Human PBMC [4]; [8]): strongly blocked | effect on glutamate increase in IgG production (Human PBMC [4]; [8]): strongly blocked

CC1(C)O[C@@H]2[C@@H](CO[C@@]3(COS(N)(=O)=O)OC(C)(C)O[C@@H]23)O1 [TPM, topiramate]
effect on glutamate mediated increase in IgE production (primary human B cells [1]; [6]): did not influence IgE production | effect on increase in sCD23 release caused by KAR stimulation (RPMI8866 cells; 24 hours): no change is observed | effect on baseline sCD23 release (RPMI8866 cells): none of the antagonists have any effect
